Assays:
[1] = Example 3: storage stability of formulations at 5° C., 15° C. and 25° C.; type: physicochemical
Protocol: Compound A1 weighed so as to have the composition shown in Table 7 below and each of the buffer solutions were dissolved in water for injection to obtain a uniform solution. These solutions were filled in glass ampoules and sealed. Each pH in Example 3 was measured during each storage period using a pH meter HM-30R (manufactured by DKK-TOA CORPORATION).
The residual ratio of Compound A1 and the production of each of the decomposition products at 5° C., 15° C., and 25° C. were evaluated according to a test method described below.
Test method: In the solution after the storage, the residual ratio was analyzed according to a normal method using a liquid chromatography apparatus (ACQUITY UPLC H-Class; measurement wavelength: 210 nm). At this time, XSELECT CSH C18 (2.1 mm×100 mm, 3.5 μm, manufactured by Waters Corporation) was used as a column.
Calculation for obtaining the residual ratio (%) of Compound A1 and each of the decomposition products (%) during each storage period is as follows.
Residual ratio (%) of Compound A1=peak area of Compound A1 in sample solution/sum of peak area of sample solution×100
Each of decomposition products (%)=peak area of each of decomposition products in sample solution/sum of peak area of sample solution×100

[2] = Example 4B: residual ratio at 50, 60, 70° C. and Arrhenius estimation at 25° C.; type: physicochemical; settings: for Kobs: estimation at 25° C. (Arrhenius plot); for Residual ratio (%) estimation: estimation at 25° C.
Protocol: According to Table 13, Compound A1 was dissolved at 2 concentrations in each of the buffer solutions having a pH at each of both ends of Example 4A. Each of these solutions was dispensed into a glass vial and stored at each of 50° C., 60° C., and 70° C. After the storage, a residual ratio was calculated according to a test method described below.
Test method: In the solution after the storage, the residual ratio was analyzed according to a normal method using a liquid chromatography apparatus Prominence (manufactured by Shimadzu Corporation) and an ultraviolet absorptiometer (measurement wavelength: 254 nm, Prominence (manufactured by Shimadzu Corporation)). At this time, SUMIPAX ODS (3 mm×150 mm, […], manufactured by SCAS) was used as a column.
The calculation for obtaining the residual ratio (%) of Compound A1 during each storage period is as follows.
Residual ratio (%) of Compound A1 during each storage period=peak area of Compound A1 in sample solution/peak area of Compound A1 in standard solution×100
Here, “Compound A1 in standard solution” refers to a solution obtained by dissolving Compound A1 in each of the buffer solutions shown in Table 13 so that a concentration was 0.1 mg/mL, and then storing the solution at 5° C. It was clear from the results of Example 1 that the solution of Compound A1 was stable when being stored at 5° C., and thus, the solution was used as the standard solution.
The reaction rate constant at each of the storing temperatures was calculated using the obtained residual ratio. The Arrhenius plot was performed to calculate the reaction rate constant (h^−1) at an arbitrary temperature. As an example, the residual ratio estimation at 25° C. is shown in Table 15 and described in FIG. 1.

[3] = test system: serum iPTH; experiment: Estimation of EC50, PK and clinically effective dose in patients with renal failure; design: species or system human
Description: EC50 value in patient with renal failure was estimated based on the calculated EC50 value in healthy adults and the results from the same analysis in normal rats and adenine-treated rat models (pathological rat models). […] Since the difference in the EC50 value between rats in normal state and pathological state is presumed to be caused by the changes in PK that are considered to greatly vary between normal state and pathological state, similar tendency is expected in human as well.
The result from PK fitting, and the contribution rate of renal elimination of the drug (3.2%) calculated using PK-sim (registered trademark) were used to simulate PK prediction in the patients with renal failure. […] As a result, administration of a dose of 0.06 mg/man was estimated to maintain a concentration higher than 1.4 ng/mL for 72 hours (FIG. 2-8).

[4] = test system: healthy Japanese male adults; experiment: Phase I clinical trial (P1), single intravenous dose; type: in vivo, human
Protocol: Thirty-two healthy Japanese male adults were given a single intravenous dose of the test drug (Compound A1) at 0.01 mg, 0.1 mg, 1.0 mg or 2.5 mg in a fasted state to study the pharmacokinetics, pharmacodynamics and safety by a double-blind test using a placebo as a control. Here, the trial drug was administered by diluting a required dose taken from the Compound A1 vial formulation prepared as follows with sterilized water for injection, and filling a syringe with the resultant in accordance with the dose to be administered.
A vial formulation encapsulating 100 mg of Compound A1 in terms of a dehydrate, and sodium chloride, disodium hydrogen phosphate dodecahydrate, and sodium dihydrogen phosphate dihydrate as additives in 10 ml of sterilized water for injection

[5] = single intravenous doses of 0.01, 0.1, 1.0 and 2.5 mg

In the case of `Cc1c(Cl)cc(S(=O)(=O)[O-])cc1NC(=O)NC[C@H](N)C(=O)O.[Na+]` [Compound A1, sodium 3-{[(2S)-2-amino-2-carboxyethyl]carbamoylamino}-5-chloro-4-methylbenzenesulfonate], the storage stability ([1]; formulations in the pH range of 6.4 to 6.9, 5° C., for 30 months) is reported as “excellent storage stability”, the storage stability ([1]; formulations in the pH range of 6.4 to 6.9, 15° C., for 12 months) is reported as “excellent storage stability” and the storage stability ([1]; formulations in the pH range of 6.4 to 6.9, 25° C. (60% RH), for 6 months) is reported as “excellent storage stability”. For the same molecule, the Kobs ([2]; pH 1.1, 0.1 mg/mL) was 3.01e-06 h⁻¹, the Kobs ([2]; pH 1.1, 10 mg/mL) was 5.55e-06 h⁻¹ and the Kobs ([2]; pH 7.0, 0.1 mg/mL) was 3.1e-06 h⁻¹. The Kobs ([2]; pH 7.0, 10 mg/mL) was 5.73e-06 h⁻¹, the “Residual ratio (%) estimation” value ([2]; pH 1.1, 0.1 mg/mL, 3M) was 99.4% and the “Residual ratio (%) estimation” value ([2]; pH 1.1, 0.1 mg/mL, 6M) was 98.7%. For the same molecule, the “Residual ratio (%) estimation” value ([2]; pH 1.1, 0.1 mg/mL, 12M) was 97.4%, the “Residual ratio (%) estimation” value ([2]; pH 1.1, 10 mg/mL, 3M) was 98.8% and the “Residual ratio (%) estimation” value ([2]; pH 1.1, 10 mg/mL, 6M) was 97.6%. For the same molecule, the “Residual ratio (%) estimation” value ([2]; pH 1.1, 10 mg/mL, 12M) was 95.3%, the “Residual ratio (%) estimation” value ([2]; pH 7.0, 0.1 mg/mL, 3M) was 99.3% and the “Residual ratio (%) estimation” value ([2]; pH 7.0, 0.1 mg/mL, 6M) was 98.7%. The “Residual ratio (%) estimation” value ([2]; pH 7.0, 0.1 mg/mL, 12M) was 97.4%, the “Residual ratio (%) estimation” value ([2]; pH 7.0, 10 mg/mL, 3M) was 98.8% and the “Residual ratio (%) estimation” value ([2]; pH 7.0, 10 mg/mL, 6M) was 97.6%. The “Residual ratio (%) estimation” value ([2]; pH 7.0, 10 mg/mL, 12M) was 95.2%, the storage stability ([2]; formulation with pH of 1.1 and 7.0, 25° C., over 12 months (estimation)) was “excellent storage stability” and the “Residual ratio (%)” value ([2]; pH 1.1, 0.1 mg/mL, 50° C., 23 hours) was 98.9%. The “Residual ratio (%)” value ([2]; pH 1.1, 0.1 mg/mL, 50° C., 141 hours) was 96.9%, the “Residual ratio (%)” value ([2]; pH 1.1, 0.1 mg/mL, 50° C., 570 hours) was 92.3% and the “Residual ratio (%)” value ([2]; pH 1.1, 0.1 mg/mL, 60° C., 23 hours) was 97.8%. For the same molecule, the “Residual ratio (%)” value ([2]; pH 1.1, 0.1 mg/mL, 60° C., 141 hours) was 92.0%, the “Residual ratio (%)” value ([2]; pH 1.1, 0.1 mg/mL, 60° C., 570 hours) was 76.7% and the “Residual ratio (%)” value ([2]; pH 1.1, 0.1 mg/mL, 70° C., 23 hours) was 94.5%. The “Residual ratio (%)” value ([2]; pH 1.1, 0.1 mg/mL, 70° C., 141 hours) was 76.8%, the “Residual ratio (%)” value ([2]; pH 1.1, 0.1 mg/mL, 70° C., 570 hours) was 35.5% and the “Residual ratio (%)” value ([2]; pH 1.1, 10 mg/mL, 50° C., 23 hours) was 96.2%. The “Residual ratio (%)” value ([2]; pH 1.1, 10 mg/mL, 50° C., 141 hours) was 96.4%, the “Residual ratio (%)” value ([2]; pH 1.1, 10 mg/mL, 50° C., 570 hours) was 89.5% and the “Residual ratio (%)” value ([2]; pH 1.1, 10 mg/mL, 60° C., 23 hours) was 96.4%. The “Residual ratio (%)” value ([2]; pH 1.1, 10 mg/mL, 60° C., 141 hours) was 95.6%, the “Residual ratio (%)” value ([2]; pH 1.1, 10 mg/mL, 60° C., 570 hours) was 73.4% and the “Residual ratio (%)” value ([2]; pH 1.1, 10 mg/mL, 70° C., 23 hours) was 92.5%. For the same molecule, the “Residual ratio (%)” value ([2]; pH 1.1, 10 mg/mL, 70° C., 141 hours) was 84.2%, the “Residual ratio (%)” value ([2]; pH 1.1, 10 mg/mL, 70° C., 570 hours) was 36.5% and the “Residual ratio (%)” value ([2]; pH 7.0, 0.1 mg/mL, 50° C., 23 hours) was 99.6%. For the same molecule, the “Residual ratio (%)” value ([2]; pH 7.0, 0.1 mg/mL, 50° C., 141 hours) was 97.7%, the “Residual ratio (%)” value ([2]; pH 7.0, 0.1 mg/mL, 50° C., 570 hours) was 90.9% and the “Residual ratio (%)” value ([2]; pH 7.0, 0.1 mg/mL, 60° C., 23 hours) was 98.2%. The “Residual ratio (%)” value ([2]; pH 7.0, 0.1 mg/mL, 60° C., 141 hours) was 89.2%, the “Residual ratio (%)” value ([2]; pH 7.0, 0.1 mg/mL, 60° C., 570 hours) was 63.9% and the “Residual ratio (%)” value ([2]; pH 7.0, 0.1 mg/mL, 70° C., 23 hours) was 93.8%. The “Residual ratio (%)” value ([2]; pH 7.0, 0.1 mg/mL, 70° C., 141 hours) was 68.0%, the “Residual ratio (%)” value ([2]; pH 7.0, 0.1 mg/mL, 70° C., 570 hours) was 21.1% and the “Residual ratio (%)” value ([2]; pH 7.0, 10 mg/mL, 50° C., 23 hours) was 100.0%. The “Residual ratio (%)” value ([2]; pH 7.0, 10 mg/mL, 50° C., 141 hours) was 98.0%, the “Residual ratio (%)” value ([2]; pH 7.0, 10 mg/mL, 50° C., 570 hours) was 89.0% and the “Residual ratio (%)” value ([2]; pH 7.0, 10 mg/mL, 60° C., 23 hours) was 97.2%. For the same molecule, the “Residual ratio (%)” value ([2]; pH 7.0, 10 mg/mL, 60° C., 141 hours) was 86.3%, the “Residual ratio (%)” value ([2]; pH 7.0, 10 mg/mL, 60° C., 570 hours) was 61.0% and the “Residual ratio (%)” value ([2]; pH 7.0, 10 mg/mL, 70° C., 23 hours) was 91.7%. For the same molecule, the “Residual ratio (%)” value ([2]; pH 7.0, 10 mg/mL, 70° C., 141 hours) was 64.4%, the “Residual ratio (%)” value ([2]; pH 7.0, 10 mg/mL, 70° C., 570 hours) was 22.2% and the “dose estimated to maintain a concentration higher than 1.4 ng/mL for 72 hours” value ([3]; PK simulation) was 0.06 mg/man. The “EC50 (estimated)” value ([3]; scaling factor applied to human) was greater than 1.4 ng/mL, the “serum iPTH concentration compared to that before the administration” value ([4]; 0.01 mg and higher dose groups) was “decreased” and the “safety (side effects)” value ([4]; 1.0 mg and higher dose groups) was “non-severe and mild side effects such as vomiting”. For the same molecule, the “duration of decreased serum iPTH concentration” value ([4]; relation to given dose) was “extended with the increase in the given dose”, the “form excreted into the urine” value ([4]; single intravenous doses) was “mostly as unchanged substances” and the “main elimination pathway of the unchanged substance” value ([4]; single intravenous doses) was “renal excretion”. The “elimination from the plasma” value [4, 5] was “rapidly eliminated” and the “form present in the plasma” value [4, 5] was “generally unchanged substances”.
